Results published in patent US20110218103A1, “Fluoroalkyl-substituted 2-amidobenzimidazoles” (BAYER CROPSCIENCE AG, priority 2010, published 2011).

What was measured:
Format in all cases: in vivo
Brassica napus (BRSNS) = assay: Drought stress test on crop plants, spray application in greenhouse, visual damage rating; conditions: mean of three results
Experimental: Seeds of monocotyledonous and dicotyledonous crop plants were placed in sandy loam in wood-fiber pots, covered with soil and cultivated in a greenhouse under good growth conditions. The test plants were treated at the early leaf stage (BBCH10-BBCH13). To ensure uniform water supply before commencement of stress, the potted plants were supplied with the maximum amount of water immediately beforehand by dam irrigation and, after application, transferred in plastic inserts in order to prevent subsequent, excessively rapid drying. The inventive compounds, formulated in the form of wettable powders (WP), wettable granules (WG), suspension concentrates (SC) or emulsion concentrates (EC), were sprayed onto the green parts of the plants as an aqueous suspension at an equivalent water application rate of 600 l/ha with addition of 0.2% wetting agent (agrotin). Substance application was followed immediately by stress treatment of the plants (cold or drought stress). For cold stress treatment, the plants were kept under the following controlled conditions: Drought stress was induced by gradual drying out under the following conditions: “day”: 14 hours with illumination at 26° C. “night”: 10 hours without illumination at 18° C. The duration of the respective stress phases was guided mainly by the state of the untreated, stressed control plants and thus varies from crop to crop. It was ended (by re-irrigating or transfer to a greenhouse with good growth conditions) as soon as irreversible damage is observed on the untreated, stressed control plants. In the case of dicotyledonous crops, for example oilseed rape and soya, the duration of the drought stress phase was between 3 and 5 days, in the case of monocotyledonous crops, for example wheat, barley or corn, between 6 and 10 days. The duration of the cold stress phase varied between 12 and 14 days. The end of the stress phase was followed by an approx. 5-7-day recovery phase, during which the plants were once again kept under good growth conditions in a greenhouse. In order to rule out any influence of the effects observed by any fungicidal action of the test compounds, it was additionally ensured that the tests proceed without fungal infection and without infection pressure. After the recovery phase had ended, the intensities of damage were rated visually compared to untreated, unstressed controls of the same age (in the case of drought stress) or the same growth stage (in the case of cold stress). The intensity of damage was first assessed as a percentage (100%=plants have died, 0%=like control plants). These values were then used to calculate the efficacy of the test compounds (=percentage reduction in the intensity of damage as a result of substance application) by the following formula: [formula] EF: efficacy (%) DVus: damage value of the untreated, stressed control DVts: damage value of the plants treated with test compound The tables below list mean values in each case from three results of the same test. Effects of selected compounds of the formula (I) under drought stress: BRSNS=Brassica napus

Hordeum vulgare (HORVS) = assay: as above; conditions: 25 g/ha, mean of three results
Experimental: Seeds of monocotyledonous and dicotyledonous crop plants were placed in sandy loam in wood-fiber pots, covered with soil and cultivated in a greenhouse under good growth conditions. The test plants were treated at the early leaf stage (BBCH10-BBCH13). To ensure uniform water supply before commencement of stress, the potted plants were supplied with the maximum amount of water immediately beforehand by dam irrigation and, after application, transferred in plastic inserts in order to prevent subsequent, excessively rapid drying. The inventive compounds, formulated in the form of wettable powders (WP), wettable granules (WG), suspension concentrates (SC) or emulsion concentrates (EC), were sprayed onto the green parts of the plants as an aqueous suspension at an equivalent water application rate of 600 l/ha with addition of 0.2% wetting agent (agrotin). Substance application was followed immediately by stress treatment of the plants (cold or drought stress). For cold stress treatment, the plants were kept under the following controlled conditions: Drought stress was induced by gradual drying out under the following conditions: “day”: 14 hours with illumination at 26° C. “night”: 10 hours without illumination at 18° C. The duration of the respective stress phases was guided mainly by the state of the untreated, stressed control plants and thus varies from crop to crop. It was ended (by re-irrigating or transfer to a greenhouse with good growth conditions) as soon as irreversible damage is observed on the untreated, stressed control plants. In the case of dicotyledonous crops, for example oilseed rape and soya, the duration of the drought stress phase was between 3 and 5 days, in the case of monocotyledonous crops, for example wheat, barley or corn, between 6 and 10 days. The duration of the cold stress phase varied between 12 and 14 days. The end of the stress phase was followed by an approx. 5-7-day recovery phase, during which the plants were once again kept under good growth conditions in a greenhouse. In order to rule out any influence of the effects observed by any fungicidal action of the test compounds, it was additionally ensured that the tests proceed without fungal infection and without infection pressure. After the recovery phase had ended, the intensities of damage were rated visually compared to untreated, unstressed controls of the same age (in the case of drought stress) or the same growth stage (in the case of cold stress). The intensity of damage was first assessed as a percentage (100%=plants have died, 0%=like control plants). These values were then used to calculate the efficacy of the test compounds (=percentage reduction in the intensity of damage as a result of substance application) by the following formula: [formula] EF: efficacy (%) DVus: damage value of the untreated, stressed control DVts: damage value of the plants treated with test compound The tables below list mean values in each case from three results of the same test. Effects of selected compounds of the formula (I) under drought stress: HORVS=Hordeum vulgare

[1] = tested on: Triticum aestivum (TRZAS); assay: as above; conditions: 25 g/ha, mean of three results
Experimental: Seeds of monocotyledonous and dicotyledonous crop plants were placed in sandy loam in wood-fiber pots, covered with soil and cultivated in a greenhouse under good growth conditions. The test plants were treated at the early leaf stage (BBCH10-BBCH13). To ensure uniform water supply before commencement of stress, the potted plants were supplied with the maximum amount of water immediately beforehand by dam irrigation and, after application, transferred in plastic inserts in order to prevent subsequent, excessively rapid drying. The inventive compounds, formulated in the form of wettable powders (WP), wettable granules (WG), suspension concentrates (SC) or emulsion concentrates (EC), were sprayed onto the green parts of the plants as an aqueous suspension at an equivalent water application rate of 600 l/ha with addition of 0.2% wetting agent (agrotin). Substance application was followed immediately by stress treatment of the plants (cold or drought stress). For cold stress treatment, the plants were kept under the following controlled conditions: Drought stress was induced by gradual drying out under the following conditions: “day”: 14 hours with illumination at 26° C. “night”: 10 hours without illumination at 18° C. The duration of the respective stress phases was guided mainly by the state of the untreated, stressed control plants and thus varies from crop to crop. It was ended (by re-irrigating or transfer to a greenhouse with good growth conditions) as soon as irreversible damage is observed on the untreated, stressed control plants. In the case of dicotyledonous crops, for example oilseed rape and soya, the duration of the drought stress phase was between 3 and 5 days, in the case of monocotyledonous crops, for example wheat, barley or corn, between 6 and 10 days. The duration of the cold stress phase varied between 12 and 14 days. The end of the stress phase was followed by an approx. 5-7-day recovery phase, during which the plants were once again kept under good growth conditions in a greenhouse. In order to rule out any influence of the effects observed by any fungicidal action of the test compounds, it was additionally ensured that the tests proceed without fungal infection and without infection pressure. After the recovery phase had ended, the intensities of damage were rated visually compared to untreated, unstressed controls of the same age (in the case of drought stress) or the same growth stage (in the case of cold stress). The intensity of damage was first assessed as a percentage (100%=plants have died, 0%=like control plants). These values were then used to calculate the efficacy of the test compounds (=percentage reduction in the intensity of damage as a result of substance application) by the following formula: [formula] EF: efficacy (%) DVus: damage value of the untreated, stressed control DVts: damage value of the plants treated with test compound The tables below list mean values in each case from three results of the same test. Effects of selected compounds of the formula (I) under drought stress: TRZAS=Triticum aestivum

Zea mays (ZEAMX) [2] = assay: as above; conditions: 25 g/ha, mean of three results
Experimental: Seeds of monocotyledonous and dicotyledonous crop plants were placed in sandy loam in wood-fiber pots, covered with soil and cultivated in a greenhouse under good growth conditions. The test plants were treated at the early leaf stage (BBCH10-BBCH13). To ensure uniform water supply before commencement of stress, the potted plants were supplied with the maximum amount of water immediately beforehand by dam irrigation and, after application, transferred in plastic inserts in order to prevent subsequent, excessively rapid drying. The inventive compounds, formulated in the form of wettable powders (WP), wettable granules (WG), suspension concentrates (SC) or emulsion concentrates (EC), were sprayed onto the green parts of the plants as an aqueous suspension at an equivalent water application rate of 600 l/ha with addition of 0.2% wetting agent (agrotin). Substance application was followed immediately by stress treatment of the plants (cold or drought stress). For cold stress treatment, the plants were kept under the following controlled conditions: Drought stress was induced by gradual drying out under the following conditions: “day”: 14 hours with illumination at 26° C. “night”: 10 hours without illumination at 18° C. The duration of the respective stress phases was guided mainly by the state of the untreated, stressed control plants and thus varies from crop to crop. It was ended (by re-irrigating or transfer to a greenhouse with good growth conditions) as soon as irreversible damage is observed on the untreated, stressed control plants. In the case of dicotyledonous crops, for example oilseed rape and soya, the duration of the drought stress phase was between 3 and 5 days, in the case of monocotyledonous crops, for example wheat, barley or corn, between 6 and 10 days. The duration of the cold stress phase varied between 12 and 14 days. The end of the stress phase was followed by an approx. 5-7-day recovery phase, during which the plants were once again kept under good growth conditions in a greenhouse. In order to rule out any influence of the effects observed by any fungicidal action of the test compounds, it was additionally ensured that the tests proceed without fungal infection and without infection pressure. After the recovery phase had ended, the intensities of damage were rated visually compared to untreated, unstressed controls of the same age (in the case of drought stress) or the same growth stage (in the case of cold stress). The intensity of damage was first assessed as a percentage (100%=plants have died, 0%=like control plants). These values were then used to calculate the efficacy of the test compounds (=percentage reduction in the intensity of damage as a result of substance application) by the following formula: [formula] EF: efficacy (%) DVus: damage value of the untreated, stressed control DVts: damage value of the plants treated with test compound The tables below list mean values in each case from three results of the same test. Effects of selected compounds of the formula (I) under drought stress: ZEAMX=Zea mays

Zea mays (ZEAMX) [3] = assay: Cold stress test on crop plants, spray application in greenhouse, visual damage rating; conditions: 25 g/ha, mean of three results
Experimental: Seeds of monocotyledonous and dicotyledonous crop plants were placed in sandy loam in wood-fiber pots, covered with soil and cultivated in a greenhouse under good growth conditions. The test plants were treated at the early leaf stage (BBCH10-BBCH13). To ensure uniform water supply before commencement of stress, the potted plants were supplied with the maximum amount of water immediately beforehand by dam irrigation and, after application, transferred in plastic inserts in order to prevent subsequent, excessively rapid drying. The inventive compounds, formulated in the form of wettable powders (WP), wettable granules (WG), suspension concentrates (SC) or emulsion concentrates (EC), were sprayed onto the green parts of the plants as an aqueous suspension at an equivalent water application rate of 600 l/ha with addition of 0.2% wetting agent (agrotin). Substance application was followed immediately by stress treatment of the plants (cold or drought stress). For cold stress treatment, the plants were kept under the following controlled conditions: “day”: 12 hours with illumination at 8° C. “night”: 12 hours without illumination at 1° C. The duration of the respective stress phases was guided mainly by the state of the untreated, stressed control plants and thus varies from crop to crop. It was ended (by re-irrigating or transfer to a greenhouse with good growth conditions) as soon as irreversible damage is observed on the untreated, stressed control plants. In the case of dicotyledonous crops, for example oilseed rape and soya, the duration of the drought stress phase was between 3 and 5 days, in the case of monocotyledonous crops, for example wheat, barley or corn, between 6 and 10 days. The duration of the cold stress phase varied between 12 and 14 days. The end of the stress phase was followed by an approx. 5-7-day recovery phase, during which the plants were once again kept under good growth conditions in a greenhouse. […] The intensity of damage was first assessed as a percentage (100%=plants have died, 0%=like control plants). […]

Cc1cc(C(N)=O)c2nc(C(F)F)[nH]c2c1 [4-7]
>5%: EF (BRSNS), efficacy = percentage reduction in the intensity of damage (Brassica napus (BRSNS); 25 g/ha) | EF (HORVS), efficacy = percentage reduction in the intensity of damage (Hordeum vulgare (HORVS)) | EF (TRZAS), efficacy = percentage reduction in the intensity of damage [1]

NC(=O)c1cc(Cl)cc2[nH]c(C(F)F)nc12 [2-7]
>5%: EF (BRSNS), efficacy = percentage reduction in the intensity of damage (Brassica napus (BRSNS); 25 g/ha) | EF (HORVS), efficacy = percentage reduction in the intensity of damage (Hordeum vulgare (HORVS)) | EF (TRZAS), efficacy = percentage reduction in the intensity of damage [1]

NC(=O)c1cccc2[nH]c(C(F)(F)F)nc12 [1-14]
>5%: EF (BRSNS), efficacy = percentage reduction in the intensity of damage (Brassica napus (BRSNS); 50 g/ha) | EF (ZEAMX), efficacy = percentage reduction in the intensity of damage (Zea mays (ZEAMX) [2]) | EF (ZEAMX), efficacy = percentage reduction in the intensity of damage (Zea mays (ZEAMX) [3])
